Laboratory results from patent US6548536B2, “Agent for inducing apoptosis” (Kyowa Hakko Kogyo Co., Ltd., priority 1998, dated 2003).
Values after ≈ are worked out from the molar mass of the structure shown.

What was measured:
Type in all cases: cell-based
MCF-7 cell = assay: Growth inhibition test for hormone-dependent human breast cancer MCF-7 cell strain (MTT); conditions: 72 hours
Protocol: Cells were placed in each well of a 96-well microplate (Nunc, #167008) in an amount of 4000 cells per well, and the cells were pre-cultured in RPMI 1640 medium containing 5% fetal calf serum (FCS) for 24 hours in a 5% carbon dioxide gas incubator at 37° C. Then, a solution of each test compound in dimethyl sulfoxide (DMSO) prepared at a concentration of 10 mmol/L was serially diluted with the culture medium and added to each well (final volume: 100 μL/well). The cells were then further cultured for 72 hours in a 5% carbon dioxide gas incubator at 37° C. Five hours before completion of the culture, 4,5-dimethylthiazol-2-yl)-2,5-diphenyltetrazolium bromide (Sigma, abbreviated as “MTT” hereinafter) prepared at a concentration of 6 mg/mL with the culture medium was added in an amount of 10 μL per well. After the completion of culture, the medium was sucked, DMSO was added to each well in an amount of 150 μL per well and the mixture was vigorously stirred by using a plate mixer to completely dissolve the crystals of MTT-formazan. Then, difference of absorbance at 550 nm and 630 nm was determined by using a microplate reader (M-Spmax250, Wako Pure Chemicals). Inhibitory activity on the cell growth was calculated as 50% growth inhibitory concentration (IC50) based on a 4-parameter logistic calibration curve by using the formula of the analysis software (SOFTmax-J Ver.2.1) equipped with microplate reader.

HeLa/bcl-2 cells [1] = assay: Anti-Fas antibody-dependent apoptosis inducing activity for HeLa/bcl-2 cells; conditions: Drug concentration: 5 μM, added simultaneously with anti-Fas monoclonal antibody (CH11, 10 ng); 6 hours; Anti-Fas antibody = 100
Source text: In HeLa/bcl-2 cells into which the bcl-2 gene is introduced, apoptosis is suppressed by the bcl-2 gene. For this reason, they acquire resistance to apoptosis induced by various anticancer agents or anti-Fas antibodies. Test compounds were examined in their eliminating effect on the apoptosis resistance of HeLa/bcl-2 by simultaneously adding an anti-Fas antibody and each test compound to HeLa/bcl-2 cells and detecting enzymatic activity of caspase that was activated in the process of apoptosis induction as described below. HeLa/bcl-2 cells in Medium A were placed in each well of a 96-well microtiter plate in an amount of 3×10^4 cells. The plate was incubated in a carbon dioxide gas incubator at 37° C. for 12 hours, then each test compound appropriately diluted with Medium A (10 μl) and an anti-Fas monoclonal antibody (CH11, 10 ng) were simultaneously added to each well, and the plate was further incubated in a carbon dioxide gas incubator at 37° C. for 6 hours. After the culture supernatant was removed, the cells were lysed, and caspase activity was measured in the same manner as in Test Example 1. The enzymatic activity of caspase, which was not increased by an anti-Fas antibody alone, was increased by the treatment with the anti-Fas antibody together with the test compound.

[2] = test system: Staphylococcus aureus ATCC6538P; assay: Antibacterial activity, agar dilution method; parameters: key: —: Inactive; conditions: pH 7
Protocol: (§1) Antibacterial activity was determined by the agar dilution method using a medium prepared by dissolving 3 g of Bacto trypton (Difco), 3 g of meat extract, 1 g of yeast extract, 1 g of glucose, and 16 g of agar in 1 L of water (pH 7). The antibacterial activities of typical compounds are shown in Table 6 as minimum growth inhibitory concentrations (MIC)

[3] = test system: Enterococcus hirae ATCC10541; assay: Antibacterial activity, agar dilution method; parameters: key: —: Inactive; conditions: pH 7
Protocol: as §1

[4] = test system: Bacillus Subtilis ATCC107O7; assay: Antibacterial activity, agar dilution method; parameters: key: —: Inactive; conditions: pH 7
Protocol: as §1

HeLa cells = assay: Apoptosis inducing activity (caspase activation, Ac-DEVD-AMC) for HeLa cells; conditions: Drug concentration: 5 μM; 6 hours; No drug = 100
Protocol: (§2) Apoptosis inducing activity of the medicaments of the present invention was determined by measuring enzymatic activity of caspase activated in the process of apoptosis induction as described below,. HeLa cells or HeLa cells into which the bcl-2 gene was introduced (HeLa/bcl-2 cells) contained in DME medium containing 10% fetal calf serum (NISSUI PHARMACEUTICAL CO., LTD., referred to as “Medium A” hereinafter in the example) were placed in each well of 96-well microtiter plates in an amount of 3×10^4 cell. The cells on the plates were cultured in a carbon dioxide gas incubator at 37° C. for 12 hours, then a test compound appropriately diluted with Medium A was added to each well in an amount of 10 μl, and the cells were further cultured in a carbon dioxide gas incubator at 37° C. for 6 hours. After the culture supernatant was removed, the cells were lysed, and to the cell lysate was added a fluorescent substrate of caspase, Ac-DEVD-AMC (Peptide Laboratory). Then, the caspase activity was determined by measuring AMC (7-amino-4-methylcoumarin) released as a result of degradation of Ac-DEVD-AMC by caspase remained in the cell lysate through measurement of fluorescence intensity at 460 nm.

HeLa/bcl-2 cells [5] = assay: Apoptosis inducing activity (caspase activation, Ac-DEVD-AMC) for HeLa/bcl-2 cells; conditions: Drug concentration: 5 μM; 6 hours; No drug = 100
Protocol: as §2

HeLa/bcl-2 cells [6] = assay: Cytotoxic activity for HeLa/bcl-2 cells (XTT staining); conditions: 24 hours, read-out: Growth Inhibition (IC50), HeLa/bcl-2 cell
Protocol: HeLa/bcl-2 cells in Medium A were placed in each well of a 96-well microtiter plate in an amount of 3×10^4 cells. The plate was incubated in a carbon dioxide gas incubator at 37° C. for 12 hours, then 10 μl of each test compound appropriately diluted with Medium A was added to each well, and the incubation was further continued in a carbon dioxide gas incubator at 37° C.

| SMILES | IC50 (MCF-7 cell) | Rate of Caspase Activation, HeLa/bcl-2 cell (HeLa/bcl-2 cells [1]) | MIC, SA [2] | MIC, EH [3] | MIC, BS [4] | Rate of Caspase Activation, HeLa cell (HeLa cells) | Rate of Caspase Activation, HeLa/bcl-2 cell (HeLa/bcl-2 cells [5]) | IC50 (HeLa/bcl-2 cells [6]) |
| --- | --- | --- | --- | --- | --- | --- | --- | --- |
| COC(=O)NC1C(C)OC(OC2C/C=C(\C)C3C=CC4C(OC5CC(OC6CCC(OC7CC(OC(C)=O)C(O)C(C)O7)C(C)O6)C(OC(C)=O)C(C)O5)C(C)CC(C)C4C3(C)C(=O)C3=C(O)C4(CC(C=O)=CC(OC(C)=O)C4/C=C/2C)OC3=O)CC1(C)[N+](=O)[O-] (stereo not shown) [Compound 65] | 520 nM | 659% | — | — | 2.34 µg/mL (≈ 1.82 µM) |  |  |  |
| COC(=O)NC1C(C)OC(OC2C/C=C(\C)C3C=CC4C(OC5CC(OC6CCC(OC7CC(O)C(OC8CCC(O)C(C)O8)C(C)O7)C(C)O6)C(OC(C)=O)C(C)O5)C(C)CC(C)C4C3(C)C(=O)C3=C(O)C4(CC(C=O)=CC(O)C4/C=C/2C)OC3=O)CC1(C)[N+](=O)[O-] (stereo not shown) [Compound 1] |  | 964% |  |  |  |  |  |  |
| CCOC(OCC)C1=CC(O)C2/C=C(\C)C(OC3CC(C)([N+](=O)[O-])C(NC(=O)OC)C(C)O3)C/C=C(\C)C3C=CC4C(OC5CC(OC6CCC(OC7CC(O)C(OC8CCC(O)C(C)O8)C(C)O7)C(C)O6)C(OC(C)=O)C(C)O5)C(C)CC(C)C4C3(C)C(=O)C3=C(OC)C2(C1)OC3=O (stereo not shown) [Compound 38] | 1220 nM |  | — | — | 12.5 µg/mL (≈ 8.92 µM) |  |  |  |
| COC(=O)NC1C(C)OC(OC2CC=C(C)C3C=CC4C(OC5(C)OC6OC(COC(C)=O)C(OC(C)=O)C(OC(C)=O)C6O5)C(C)CC(C)C4C3(C)C(=O)C3=C(O)C4(CC(C=O)=CC(OC(C)=O)C4C=C2C)OC3=O)CC1(C)[N+](=O)[O-] (stereo not shown) [Compound 66] | 1400 nM |  | 60.0 µg/mL (≈ 51.9 µM) | 60.0 µg/mL (≈ 51.9 µM) | >60.0 µg/mL |  |  |  |
| COC(=O)NC1C(C)OC(OC2C/C=C(\C)C3C=CC4C(O[Si](C)(C)C(C)(C)C)C(C)CC(C)C4C3(C)C(=O)C3=C(O)C4(CC(C=O)=CC(O)C4/C=C/2C)OC3=O)CC1(C)[N+](=O)[O-] (stereo not shown) [Compound 22] |  | 444% | 42 µg/mL (≈ 46.8 µM) | 21 µg/mL (≈ 23.4 µM) | — | 243% | 1078% | 1800 nM |
| COC(=O)NC1C(C)OC(OC2CC=C(C)C3C=CC4C(OC5C=CC(OC(C)=O)C(C)O5)C(C)CC(C)C4C3(C)C(=O)C3=C(O)C4(CC(C=O)=CC(OC(C)=O)C4C=C2C)OC3=O)CC1(C)[N+](=O)[O-] (stereo not shown) [Compound 61] | 1450 nM | 452% | — | — | 10.4 µg/mL (≈ 10.6 µM) | 213% | 370% |  |
| COC(=O)NC1C(C)OC(OC2CC=C(C)C3C=CC4C(OC5CC(OC(C)=O)C(OC(C)=O)C(C)O5)C(C)CC(C)C4C3(C)C(=O)C3=C(O)C4(CC(C=O)=CC(OC(C)=O)C4C=C2C)OC3=O)CC1(C)[N+](=O)[O-] (stereo not shown) [Compound 59] | 980 nM |  | >66.7 µg/mL | >66.7 µg/mL | 16.7 µg/mL (≈ 16.1 µM) |  |  |  |
| COC(=O)NC1C(C)OC(OC2C/C=C(\C)C3C=CC4C(OC5CC(OC6CCC(O)C(C)O6)C(OC(C)=O)C(C)O5)C(C)CC(C)C4C3(C)C(=O)C3=C(O)C4(CC(C=NO)=CC(O)C4/C=C/2C)OC3=O)CC1(C)[N+](=O)[O-] (stereo not shown) [Compound 25] |  |  | — | — | >83 µg/mL |  |  |  |
| COC(=O)NC1C(C)OC(OC2C/C=C(\C)C3C=CC4C(OC5CCCCO5)C(C)CC(C)C4C3(C)C(=O)C3=C(O)C4(CC(C=O)=CC(OC(C)=O)C4/C=C/2C)OC3=O)CC1(C)[N+](=O)[O-] (stereo not shown) [Compound 51] | 1360 nM | 460% | 1.56 µg/mL (≈ 1.72 µM) | 1.56 µg/mL (≈ 1.72 µM) | 6.25 µg/mL (≈ 6.88 µM) |  |  |  |
| CC[Si](CC)(CC)OC1C=CC(OC2C(C)CC(C)C3C2C=CC2C(C)=CCC(OC4CC(C)([N+](=O)[O-])C(NC(=O)OC)C(C)O4)C(C)=CC4C(OC(C)=O)C=C(C=O)CC45OC(=O)C(=C5O)C(=O)C23C)OC1C (stereo not shown) [Compound 63] | 720 nM |  | — | — | >91.7 µg/mL |  |  |  |
| COC(=O)NC1C(C)OC(OC2CC=C(C)C3C=CC4C(OC5CC(OCc6ccccc6)C(OCc6ccccc6)C(COCc6ccccc6)O5)C(C)CC(C)C4C3(C)C(=O)C3=C(O)C4(CC(C=O)=CC(O)C4C=C2C)OC3=O)CC1(C)[N+](=O)[O-] (stereo not shown) [Compound 55] |  |  |  |  |  | 106% | 448% |  |
| COC(=O)C=CC1=CC(O)C2/C=C(\C)C(OC3CC(C)([N+](=O)[O-])C(NC(=O)OC)C(C)O3)C/C=C(\C)C3C=CC4C(OC5CC(OC6CCC(OC7CC(O)C(OC8CCC(O)C(C)O8)C(C)O7)C(C)O6)C(OC(C)=O)C(C)O5)C(C)CC(C)C4C3(C)C(=O)C3=C(O)C2(C1)OC3=O (stereo not shown) [Compound 37] | 5110 nM |  | — | — | 0.42 µg/mL (≈ 0.307 µM) |  |  |  |
| COC(=O)NC1C(C)OC(OC2C/C=C(\C)C3C=CC4C(OC5CC(OC6CCC(OC7CC(O)C(O)C(C)O7)C(C)O6)C(OC(C)=O)C(C)O5)C(C)CC(C)C4C3(C)C(=O)C3=C(O)C4(CC(C=NO)=CC(O)C4/C=C/2C)OC3=O)CC1(C)[N+](=O)[O-] (stereo not shown) [Compound 24] |  |  | >92 µg/mL | >92 µg/mL | 2.9 µg/mL (≈ 2.39 µM) |  |  |  |
| COC(=O)NC1C(C)OC(OC2CC=C(C)C3C=CC4C(OC5CC(OCc6ccccc6)C(OCc6ccccc6)C(COCc6ccccc6)O5)C(C)CC(C)C4C3(C)C(=O)C3=C(O)C4(CC(C=O)=CC(OC(C)=O)C4C=C2C)OC3=O)CC1(C)[N+](=O)[O-] (stereo not shown) [Compound 56] | 630 nM |  |  |  |  |  |  |  |
| COC(=O)NC1C(C)OC(OC2CC=C(C)C3C=CC4C(OC5C=CC(O)C(C)O5)C(C)CC(C)C4C3(C)C(=O)C3=C(O)C4(CC(C=O)=CC(OC(C)=O)C4C=C2C)OC3=O)CC1(C)[N+](=O)[O-] (stereo not shown) [Compound 60] |  | 526% | — | — | >83.3 µg/mL |  |  |  |
